Consider 13 molecules from PubChem BioAssay (NCI).

Molecules are shown by their SMILES.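 Interpolation was linear, between the two tested concentrations surrounding the appropriate level; five concentrations were tested over 48 hours in 96-well plates. GI50 is the concentration that inhibits growth by half. At the TGI there is no net growth.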

What all share (assay): growth of human tumour cells (NCI), 48 h
Test [1] has as its system U251 CNS.
The subject of test [2] is OVCAR-4 ovarian.
For test [3], the system named is SK-MEL-5 melanoma.
The test system of test [4] is HL-60(TB) leukemia.
The test system of test [5] is OVCAR-5 ovarian.
For test [6], the system named is MOLT-4 leukemia.
For test [7], the system named is HT29 colon.
The test system of test [8] is DU-145 prostate.
Test [9] deals with CCRF-CEM leukemia.

For `Oc1[nH]c2ccccc2c1/C=c1/cc2c(c(-c3ccc(C(F)(F)F)cc3)n1)=Nc1ccccc1-2`, the GI50 in test [1] was 4.46 µM; in test [2], 2.75 µM; in test [3] it was 5.28 µM; in test [4], 3.41 µM; in [5] it was 11.8 µM; in test [6], 3.32 µM. Moreover, the GI50 is 3.16 µM in test [7], 8.93 µM in [8] and 3.06 µM in [9]. In addition, the TGI in test [1] was found to be 18.3 µM; in test [2], 13.6 µM; in [3], 19.3 µM; in [4], 9.25 µM; in test [5], 33.8 µM; in test [6] it was 13.2 µM. Also, the values for the TGI in test [7], in test [8] and in [9] were 11.4 µM, 34.8 µM and 16.4 µM, respectively.
Consider `Cc1ccc(/C=C2\CN(C)CC3C2=NC(=S)NC3c2ccc(C)cc2)cc1` (stereo unspecified), for which the TGI was > 87.4 µM in test [1]; > 100 µM in test [2]; > 100 µM in [3]; > 100 µM in test [4]; > 100 µM in [5]; 56 µM in [6]. Moreover, the TGI in test [7] was > 100 µM; in test [8] it was > 100 µM; in test [9], 54.5 µM.
For `COc1cccc(CN(C(=O)/C=C\Sc2ccccc2)C(C)(C)C)c1`, the TGI in test [1], in test [2], in test [3], in [4], in test [5] and in test [6] was > 100 µM each time. For the same molecule, the TGI in test [7], in test [8] and in test [9] was > 100 µM in each case.
On to `CC1=C2NCN(C)N=C2C(C#N)(C#N)C1(C#N)C#N`, for which the TGI in [1] was > 76.9 µM; in test [2], 34.8 µM; in test [3] it was > 71.4 µM; in test [4], 4.84 µM; in [5] it was > 91.7 µM; in test [6], 9.87 µM. In addition, the results for the TGI in [7], in test [8] and in test [9] were 51.3 µM, > 75 µM and 7.86 µM, respectively.
As to `COc1cc2cc(C(=O)N3CC(CCl)c4c3cc([N+](C)(C)Cc3ccc([N+](=O)[O-])n3C)c3ccccc43)[nH]c2c(OC)c1OC` (stereo unspecified), the TGI in test [1] is > 100 µM; in [2] it was 6.35 µM; in [3], 4.18 µM; in test [4], 8.16 µM; in test [5] it was > 100 µM; in [6], 16 µM. Further, the TGI in [7] was > 100 µM; in test [8], 23.8 µM; in test [9], 18.6 µM.
For `CO[P@]1(=O)O[C@@H](c2ccccc2)[C@H](O)[C@@]1(O)c1ccccc1`, the TGI in [1], in test [2], in test [3], in test [4], in test [5] and in [6] was > 100 µM throughout. Besides, the TGI in test [7], in test [8] and in [9] was > 100 µM each time.
For `CCCNC(=O)CCC(C)[C@H]1CCC2C3C(C[C@H](OC(C)=O)[C@@]21C)[C@@]1(C)CCC2(C[C@H]1C[C@H]3OC(C)=O)OOC1(CCCCC1)OO2` (stereo partly specified), the TGI came to 3.84 µM in test [1]; 26.6 µM in test [2]; 5.71 µM in test [3]; 3.94 µM in [4]; 25.8 µM in test [5]; 5.14 µM in test [6]. The figures for the TGI in test [7], in test [8] and in [9] were > 90.8 µM, 3.36 µM and 4.95 µM, respectively.
For the molecule `Cc1cn([C@H]2[C@@H](CO)C[C@H]2O)c(=O)[nH]c1=O`, the TGI in test [1], in test [2], in test [3], in [4], in [5] and in test [6] was > 100 µM in each case. In addition, the TGI in test [7], in [8] and in [9] was > 100 µM throughout.
`Cc1c2cccc-2ccc2c1[nH]c1ccccc12`: the TGI in test [1] is 3.17 µM; in [2] it was 5.09 µM; in test [3], 3.34 µM; in test [4], 9.38 µM; in test [5], 4.77 µM; in test [6], 28.2 µM. Moreover, the TGI was 14.4 µM in test [7], 15.7 µM in [8] and > 26.1 µM in test [9].
`O=C1OI(C#Cc2ccccc2)c2ccccc21`: the TGI in test [1] is 6.13 µM; in test [2], 12.3 µM; in test [3], 6.77 µM; in test [4], 7.82 µM; in [5], > 40.1 µM; in test [6] it was 5.34 µM. The TGI in [7] stood at 20.1 µM; in test [8], 23.4 µM; in test [9], 4.01 µM.
In the case of `CC(=O)c1ccc(NC(=O)CSc2nc(C)nc3c2sc(=S)n3-c2ccccc2)cc1`, the TGI in test [1], in test [2], in test [3], in test [4], in test [5] and in test [6] was > 3.16 µM in each case. Besides, the TGI in test [7], in [8] and in test [9] was > 3.16 µM each time.
In the case of `O=C(CSc1nc2ccc(I)cc2c(=O)n1Cc1ccccc1)NN1C(=O)CCC1=O`, the TGI in test [1] was > 100 µM; in [2], 75.9 µM; in test [3], > 100 µM; in test [4], 87.6 µM; in [5], > 100 µM; in test [6], > 100 µM. Besides, the TGI in test [7], in test [8] and in [9] was > 100 µM in each case.
`COC1=CC(=O)C2=C(C1=O)[C@H]1CC[C@]3(C)[C@@H](OC(C)=O)CC[C@H]3[C@@H]1CC2`: the TGI in test [1] was > 100 µM; in test [2], 30.6 µM; in test [3] it was 48.8 µM; in test [4] it was 40.4 µM; in test [5], > 100 µM; in test [6] it was 84 µM. Also, the results for the TGI in test [7], in test [8] and in test [9] were 48.5 µM, > 100 µM and > 100 µM, respectively.
